# Results reported in patent publication US20090069442A1, “Therapeutic Agent for Sensory Abnormality” (priority 2005, published 2009).
# Experiments:
# [1] = tested on: sciatic nerve entrapment model rats (Bennett model rats); test: Analgesic effect in partial nerve injury models, paw pressure (Randall-Selitto) method; type: in vivo, Spraugue-Dawley rats; settings: for pain threshold of the nerve-injured paw: started after hyperalgesia confirmed, FIG. 2
# Procedure: (§1) For a hyperalgesia model animal, sciatic nerve entrapment model rats (Bennett model rats) serving as partial nerve injury models, were used. That is, four-week-old male Spraugue-Dawley rats (Japan SLC, Inc.) were housed under a constant temperature and humidity condition for a week. Then, under anesthesia with pentobarbital (50 mg/kg), the sciatic nerve in the left hind paw was stripped from tissue, and raised using tweezers to slightly stretch the axon part. […] The right hind paw was left untreated for use as a normal paw. The operated site was disinfected with Isodine everyday in the first post-operative week to prevent infection.
# As the test substance, 3-(15-hydroxypentadecyl)-2,4,4-trimethyl-2-cyclohexen-1-one (hereafter, also referred to as compound 24) synthesized in Preparation Example 24 was used.
# Rats showing reduction of pain threshold by 30% or more in the nerve-injured paw, and change in pain threshold within a range of 5% in the normal paw, as compared to preoperative values, were used for the experiment. Prior to administration of the test substance, the nerve-injured paw (operated side) and the normal paw (untreated side) of each individual were subjected to an analgesic test. Furthermore, the test substance-administered group was intraperitoneally administered with a single dose of the test substance (8 mg/kg, 24 mg/kg, and 40 mg/kg) everyday for a week. The control group was administered with the vehicle of the test substance during the same period. After one week from the start of administration, the nerve-injured paw (operated side) and the normal paw (untreated side) of each rat were again subjected to an analgesic test.
# The paw pressure (Randall-Selitto) method using pressure stimuli was employed as the analgesic test. Mechanical pressure stimuli were applied on the dorsal portion of the rat hind paw by an analgesimeter, and the minimum value of pressure stimulus at which vocalization or withdrawal occurred was defined as pain threshold. In the measurement of pain threshold according to the paw pressure method, a rat has to be held down and restrained. […]
# [2] = tested on: sciatic nerve entrapment model rats (Bennett model rats); test: Injury-preventive effect in partial nerve injury models, paw pressure (Randall-Selitto) method; type: in vivo, Spraugue-Dawley rats
# Procedure: as §1, with “and used” for “for use”
# As the test substance, compound 24 synthesized in Preparation Example 24 was used.
# The nerve-injured paw (operated side) and the normal paw (untreated side) of each individual were previously subjected to an analgesic test, subsequently followed by Bennett operation. Furthermore, a single dose of the test substance (8 mg/kg) was intraperitoneally administered from the day of the operation, everyday for a week. The control group was administered with the vehicle of the test substance during the same period. After one week from the start of administration, the nerve injured paw (operated side) and the normal paw (untreated side) of each rat were again subjected to an analgesic test. […]
# [3] = tested on: STZ-induced diabetic model mice; test: Improving effect in dullness models, formaldehyde-induced licking and biting behavior; type: in vivo, ddY mice; settings: a week of intraperitoneal administration (8, 24 and 40 mg/kg) with the STZ administration; 1% formaldehyde into plantar; FIG. 4
# Procedure: Four-week-old male ddY mice were administered with a single dose of streptozotocin (hereunder, also referred to as STZ) (200 mg/kg) by tail vein injection, everyday for a week. For 24 hours after STZ administration, the rats were allowed to freely take a 10% glucose solution instead of drinking water, and then allowed to freely take distilled water. As the test substance, compound 24 synthesized in Preparation Example 24 was used. Concurrently with the start of STZ administration, the test substance-administration group was intraperitoneally administered with a single dose of the test substance (8 mg/kg, 24 mg/kg, and 40 mg/kg) everyday for a week. The control group was administered with the vehicle of the test substance during the same period. The blood glucose level of the tail venous blood was measured by a blood glucose meter (DEXTER ZII: Bayer Medical Ltd.). Individuals with a blood sugar level of 400 mg/dL or more, were used for the experiment. After a week of STZ administration, the mice were subcutaneously injected with 1% formaldehyde solution (20 μL) into the plantar of the left hind paw. The total time spent for licking (licking of plantar of the left hind paw) behavior and biting (biting of plantar of the left hind paw) behavior was scored every 5 minutes after administration, for 60 minutes.
smiles,measurement,setting,value
"O=C1C=C(CCCCCCCCCCCO)CCC1 [Preparation Example 2, 3-(11-hydroxyundecyl)-2-cyclohexen-1-one]",melting point,,34 to 35 °C
"O=C1C=C(CCCCCCCCCCCCO)CCC1 [Preparation Example 3, 3-(12-hydroxydodecyl)-2-cyclohexen-1-one]",melting point,,35 to 36 °C
"O=C1C=C(CCCCCCCCCCCCCO)CCC1 [Preparation Example 4, 3-(13-hydroxytridecyl)-2-cyclohexen-1-one]",melting point,,42 to 43 °C
"O=C1C=C(CCCCCCCCCCCCCCO)CCC1 [Preparation Example 5, 3-(14-hydroxytetradecyl)-2-cyclohexen-1-one]",melting point,,44 to 45 °C
"CC1=C(CCCCCCCCCCCCCCCO)C(C)(C)CCC1=O [compound 24, 3-(15-hydroxypentadecyl)-2,4,4-trimethyl-2-cyclohexen-1-one]",pain threshold of the nerve-injured paw,[1]; 24 mg/kg intraperitoneally once a day for a week,significant increase in pain threshold
same,pain threshold of the nerve-injured paw,[1]; 40 mg/kg intraperitoneally once a day for a week,significant increase in pain threshold
same,pain threshold of the normal paw,"[1]; normal paw (untreated side), after the one-week administration period, intraperitoneal",no significant change in pain threshold
same,pain threshold of the nerve-injured paw after the Bennett operation,"[2]; 8 mg/kg intraperitoneally from the day of the operation, everyday for a week, FIG. 3",no significant change in pain threshold
same,pain threshold of the normal paw,"[2]; normal paw (untreated side), 8 mg/kg intraperitoneally everyday for a week",no significant change in pain threshold
same,Phase II pain response (total time spent for licking and biting behavior),[3],improved Phase II torpor
